Source: patent publication US20230089073A1 (Carmot Therapeutics, Inc., priority 2021, published 2023)

What follows are compounds tested against T1, human GLP-1 receptor (Homo sapiens, UniProt P43220) (assay: GLP-1R cAMP Assay). Details: cAMP accumulation in CHO cells stably overexpressing the human GLP-1 receptor; 30 min treatment; HitHunter cAMP kit; read-out: EC50.
T1 construct: expressed in transfected cells
Assay type: cell-based
Procedure, shortened: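 CHO cells stably overexpressing human GLP-1R, 10,000 cells/well, treated with compound in 20-point dose response in triplicate for 30 min. cAMP accumulation read by enzyme-complementation luminescence after lysis and overnight incubation; dose-response curves fitted.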

T1 sequence (P43220 24-463): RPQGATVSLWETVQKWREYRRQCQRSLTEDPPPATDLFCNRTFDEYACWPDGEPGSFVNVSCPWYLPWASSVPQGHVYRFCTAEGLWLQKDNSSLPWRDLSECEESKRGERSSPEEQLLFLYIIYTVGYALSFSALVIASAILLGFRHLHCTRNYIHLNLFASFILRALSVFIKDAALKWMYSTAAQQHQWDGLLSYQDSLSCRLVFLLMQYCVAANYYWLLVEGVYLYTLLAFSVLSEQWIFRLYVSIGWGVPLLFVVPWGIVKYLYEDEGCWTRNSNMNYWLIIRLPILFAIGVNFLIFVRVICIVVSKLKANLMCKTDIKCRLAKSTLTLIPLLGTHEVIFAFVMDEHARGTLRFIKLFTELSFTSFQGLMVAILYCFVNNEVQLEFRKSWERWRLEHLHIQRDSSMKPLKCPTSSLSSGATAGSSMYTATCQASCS

**Q.** `Cc1cc(C2CC2)ccc1N(C)c1cccc(C(=O)N2CCN(Cc3nc4ccc(C(=O)O)cc4n3C[C@@H]3CCO3)CC2)c1` [Example 115, (S)-2-((4-(3-((4-Cyclopropyl-2-methylphenyl)(methyl)amino)benzoyl)piperazin-1-yl)methyl)-1-(oxetan-2-ylmethyl)-1H-benzo[d]imidazole-6-carboxylic acid] was tested. Which EC50 did it give?
**A.** < 50 nM

**Q.** How did the EC50 turn out when `CCn1cncc1Cn1c(CN2CCC(Cc3ccc(COc4ccc(Cl)cc4Cl)o3)CC2)nc2ccc(C(=O)O)cc21` [Compound 109, 2-{[4-({5-[(2,4-dichlorophenoxy)methyl]furan-2-yl}methyl)piperidin-1-yl]methyl}-1-[(1-ethyl-1H-imidazol-5-yl)methyl]-1H-1,3-benzodiazole-6-carboxylic acid] was run?
**A.** < 50 nM

**Q.** `Cc1ccc(Oc2cccc(CN3CCN(Cc4nc5ccc(C(=O)O)cc5n4C[C@@H]4CCO4)CC3)c2)cc1` [Compound 35, 2-[(4-{[3-(4-methylphenoxy)phenyl]methyl}piperazin-1-yl)methyl]-1-{[(2S)-oxetan-2-yl]methyl}-1H-1,3-benzodiazole-6-carboxylic acid] was tested. Which EC50 did it give?
**A.** > 500 nM

**Q.** `CN(c1ccccc1)c1cc(C(=O)N2CCN(Cc3nc4ccc(C(=O)O)cc4n3C[C@@H]3CCO3)CC2)ncn1` [Example 62, (S)-2-((4-(6-(Methyl(phenyl)amino)pyrimidine-4-carbonyl)piperazin-1-yl)methyl)-1-(oxetan-2-ylmethyl)-1H-benzo[d]imidazole-6-carboxylic acid] was tested. Which EC50 did it give?
**A.** > 500 nM

**Q.** Which EC50 does the source give for `O=C(O)c1ccc2nc(CN3CCC(Cc4cccc(COc5ccc(Cl)cc5Cl)c4)CC3)n(C[C@H]3CCOC3)c2c1` [Compound 148, 2-{[4-({3-[(2,4-dichlorophenoxy)methyl]phenyl}methyl)piperidin-1-yl]methyl}-1-{[(3R)-oxolan-3-yl]methyl}-1H-1,3-benzodiazole-6-carboxylic acid] here?
**A.** < 50 nM

**Q.** How did the EC50 turn out when `Cc1ccc(N(C)c2ccc(C)c(C(=O)N3CCN(Cc4nc5ccc(C(=O)O)cc5n4C[C@@H]4CCO4)CC3)c2)c(Cl)c1` [Compound 75, 2-[(4-{5-[(2-chloro-4-methylphenyl)(methyl)amino]-2-methylbenzoyl}piperazin-1-yl)methyl]-1-{[(2S)-oxetan-2-yl]methyl}-1H-1,3-benzodiazole-6-carboxylic acid] was run?
**A.** < 50 nM

**Q.** For `Cc1ccc(Oc2ccc(C(=O)N3CCN(Cc4nc5ccc(C(=O)O)cc5n4C[C@@H]4CCO4)CC3)cc2)cc1` [Compound 22, 2-({4-[4-(4-methylphenoxy)benzoyl]piperazin-1-yl}methyl)-1-{[(2S)-oxetan-2-yl]methyl}-1H-1,3-benzodiazole-6-carboxylic acid], which EC50 is on record?
**A.** > 500 nM

**Q.** For `CCn1cncc1Cn1c(CN2CCC(Cc3cccc(COc4ccc(F)cc4C#N)c3)CC2)nc2ccc(C(=O)O)cc21` [Compound 188, 2-{[4-({3-[(2-cyano-4-fluorophenoxy)methyl]phenyl}methyl)piperidin-1-yl]methyl}-1-[(1-ethyl-1H-imidazol-5-yl)methyl]-1H-1,3-benzodiazole-6-carboxylic acid], which EC50 is on record?
**A.** < 50 nM

**Q.** `CCn1cncc1Cn1c(CN2CCN(C(=O)c3cccc(Cc4ccc(C)cc4Cl)c3)CC2)nc2ccc(C(=O)O)cc21` [Compound 56, 2-[(4-{3-[(2-chloro-4-methylphenyl)methyl]benzoyl}piperazin-1-yl)methyl]-1-[(1-ethyl-1H-imidazol-5-yl)methyl]-1H-1,3-benzodiazole-6-carboxylic acid] was tested. Which EC50 did it give?
**A.** 50 to 500 nM

**Q.** For `CCn1cncc1Cn1c(CN2CCC(Oc3cccc(COc4ccc(Cl)cc4F)c3)CC2)nc2ccc(C(=O)O)cc21` [Compound 231, 2-[(4-{3-[(4-chloro-2-fluorophenoxy)methyl]phenoxy}piperidin-1-yl)methyl]-1-[(1-ethyl-1H-imidazol-5-yl)methyl]-1H-1,3-benzodiazole-6-carboxylic acid], which EC50 is on record?
**A.** < 50 nM

**Q.** With `N#Cc1ccc(OCc2cc(OC3CCN(Cc4nc5ccc(C(=O)O)cc5n4C[C@@H]4CCO4)CC3)ccn2)c(F)c1` [Compound 277, 2-{[4-({2-[(4-cyano-2-fluorophenoxy)methyl]pyridin-4-yl}oxy)piperidin-1-yl]methyl}-1-{[(2S)-oxetan-2-yl]methyl}-1H-1,3-benzodiazole-6-carboxylic acid] as the compound, how does the EC50 read?
**A.** < 50 nM

**Q.** With `N#Cc1ccc(OCc2nccc(OC3CCN(Cc4nc5ccc(C(=O)O)cc5n4C[C@@H]4CCO4)CC3)n2)c(F)c1` [Example 262, (S)-2-((4-((2-((4-Cyano-2-fluorophenoxy)methyl)pyrimidin-4-yl)oxy)piperidin-1-yl)methyl)-1-(oxetan-2-ylmethyl)-1H-benzo[d]imidazole-6-carboxylic acid] as the compound, how does the EC50 read?
**A.** < 50 nM

**Q.** For `O=C(O)c1cc(F)c2nc(CN3CCC(Oc4ccnc(COc5ccc(F)cc5Cl)n4)CC3)n(CC3(CF)CC3)c2c1` [Compound 327], which EC50 is on record?
**A.** < 50 nM

**Q.** For `Cc1ccc(OCc2cccc(CC3CCN(Cc4nc5ccc(C(=O)O)cc5n4C[C@@H]4CCO4)CC3)n2)c(Cl)c1` [Compound 118, 2-{[4-({6-[(2-chloro-4-methylphenoxy)methyl]pyridin-2-yl}methyl)piperidin-1-yl]methyl}-1-{[(2S)-oxetan-2-yl]methyl}-1H-1,3-benzodiazole-6-carboxylic acid], which EC50 is on record?
**A.** < 50 nM

**Q.** `N#Cc1cc(F)ccc1OCc1cc(OC2CCN(Cc3nc4ccc(C(=O)O)cc4n3C[C@@H]3CCO3)CC2)ccn1` [Compound 183, 2-{[4-({2-[(2-cyano-4-fluorophenoxy)methyl]pyridin-4-yl}oxy)piperidin-1-yl]methyl}-1-{[(2S)-oxetan-2-yl]methyl}-1H-1,3-benzodiazole-6-carboxylic acid] was tested. Which EC50 did it give?
**A.** < 50 nM

**Q.** How did the EC50 turn out when `CCn1cncc1Cn1c(CN2CCC(Oc3cccc(COc4ccc(Cl)cc4C#N)c3)CC2)nc2ccc(C(=O)O)cc21` [Compound 215, 2-[(4-{3-[(4-chloro-2-cyanophenoxy)methyl]phenoxy}piperidin-1-yl)methyl]-1-[(1-ethyl-1H-imidazol-5-yl)methyl]-1H-1,3-benzodiazole-6-carboxylic acid] was run?
**A.** < 50 nM

**Q.** For `O=C(O)c1ccc2nc(CN3CCN(Cc4ccc(OCc5ccc(Cl)cc5Cl)o4)CC3)n(C[C@@H]3CCO3)c2c1` [Example 74, (S)-2-((4-((5-((2,4-Dichlorobenzyl)oxy)furan-2-yl)methyl)piperazin-1-yl)methyl)-1-(oxetan-2-ylmethyl)-1H-benzo[d]imidazole-6-carboxylic acid], which EC50 is on record?
**A.** > 500 nM

**Q.** Which EC50 does the source give for `N#Cc1ccc(COc2cccc(C3CCN(C(=O)c4ccc(-c5nnn[nH]5)cn4)CC3)n2)c(F)c1` [Compound 82, 3-fluoro-4-{[(6-{1-[5-(1H-1,2,3,4-tetrazol-5-yl)pyridine-2-carbonyl]piperidin-4-yl}pyridin-2-yl)oxy]methyl}benzonitrile] here?
**A.** > 500 nM

**Q.** For `O=C(O)c1ccc2nc(CN3CCC(Oc4cccc(COc5ccc(Cl)cc5Cl)c4)CC3)n(Cc3ncco3)c2c1` [Compound 217, 2-[(4-{3-[(2,4-dichlorophenoxy)methyl]phenoxy}piperidin-1-yl)methyl]-1-[(1,3-oxazol-2-yl)methyl]-1H-1,3-benzodiazole-6-carboxylic acid], which EC50 is on record?
**A.** < 50 nM

**Q.** How did the EC50 turn out when `C[C@H]1C[C@@H](Oc2nc(COc3ccc(F)cc3C#N)ncc2F)CCN1Cc1nc2ccc(C(=O)O)cc2n1C[C@@H]1CCO1` [Compound 492, 2-{[(2S,4S)-4-({2-[(2-cyano-4-fluorophenoxy)methyl]-5-fluoropyrimidin-4-yl}oxy)-2-methylpiperidin-1-yl]methyl}-1-{[(2S)-oxetan-2-yl]methyl}-1H-1,3-benzodiazole-6-carboxylic acid] was run?
**A.** < 50 nM

**Q.** How did the EC50 turn out when `O=C(O)c1ccc2nc(CN3CCC(Oc4ccnc(COc5ccc(C(F)(F)F)cc5F)n4)CC3)n(C[C@@H]3CCO3)c2n1` [Compound 371] was run?
**A.** < 50 nM

**Q.** How did the EC50 turn out when `COCCn1c(CN2CCC(Oc3ccnc(COc4ccc(Cl)cc4F)c3)CC2)nc2c(F)cc(C(=O)O)cc21` [Compound 344] was run?
**A.** < 50 nM

**Q.** With `N#Cc1ccc(OCc2ncc(F)c(OC3CCN(Cc4nc5ccc(C(=O)O)cc5n4C[C@@H]4CCO4)CC3)n2)c(F)c1` [Compound 374] as the compound, how does the EC50 read?
**A.** < 50 nM

**Q.** For `O=C(O)c1cc(F)c2nc(CN3CCC(Oc4ccnc(COc5ccc(Cl)cc5F)n4)CC3)n(CC3(CF)CC3)c2c1` [Compound 324], which EC50 is on record?
**A.** < 50 nM

**Q.** For `C[C@H]1C[C@@H](Oc2cccc(COc3ccc(C#N)cc3F)c2)CCN1Cc1nc2ccc(C(=O)O)cc2n1C[C@@H]1CCO1` [Compound 319], which EC50 is on record?
**A.** < 50 nM

**Q.** With `O=C(O)c1ccc2nc(CN3CCN(C(=O)c4cccc(Oc5ccc(Cl)cc5)c4)CC3)n(C[C@@H]3CCO3)c2c1` [Compound 7, 2-({4-[3-(4-chlorophenoxy)benzoyl]piperazin-1-yl}methyl)-1-{[(2S)-oxetan-2-yl]methyl}-1H-1,3-benzodiazole-6-carboxylic acid] as the compound, how does the EC50 read?
**A.** > 500 nM

**Q.** Which EC50 does the source give for `Cc1c(Cl)cccc1OCc1ccc(C(=O)N2CCN(Cc3nc4ccc(C(=O)O)cc4n3C[C@@H]3CCO3)CC2)o1` [Example 19, (S)-2-((4-(5-((3-Chloro-2-methylphenoxy)methyl)furan-2-carbonyl)piperazin-1-yl)methyl)-1-(oxetan-2-ylmethyl)-1H-benzo[d]imidazole-6-carboxylic acid] here?
**A.** 50 to 500 nM

**Q.** With `Cc1ccc(N(C)c2cc(C(=O)N3CCN(Cc4nc5ccc(C(=O)O)cc5n4C[C@@H]4CCO4)CC3)ccc2F)c(Cl)c1` [Example 95, (S)-2-((4-(3-((2-Chloro-4-methylphenyl)(methyl)amino)-4-fluorobenzoyl)piperazin-1-yl)methyl)-1-(oxetan-2-ylmethyl)-1H-benzo[d]imidazole-6-carboxylic acid] as the compound, how does the EC50 read?
**A.** 50 to 500 nM

**Q.** Which EC50 does the source give for `O=C(O)c1ccc2nc(CN3CCC(Cc4cccc(OCc5ccc(Cl)cc5Cl)n4)CC3)n(C[C@@H]3CCO3)c2c1` [Compound 200, 2-{[4-({6-[(2,4-dichlorophenyl)methoxy]pyridin-2-yl}methyl)piperidin-1-yl]methyl}-1-{[(2S)-oxetan-2-yl]methyl}-1H-1,3-benzodiazole-6-carboxylic acid] here?
**A.** < 50 nM

**Q.** `N#Cc1ccc(Oc2cccc(C(=O)N3CCN(Cc4nc5ccc(C(=O)O)cc5n4C[C@@H]4CCO4)CC3)c2)c(F)c1` [Example 10, (S)-2-((4-(3-(4-Cyano-2-fluorophenoxy)benzoyl)piperazin-1-yl)methyl)-1-(oxetan-2-ylmethyl)-1H-benzo[d]imidazole-6-carboxylic acid] was tested. Which EC50 did it give?
**A.** > 500 nM
